Laboratory results taken from patent US20240408099A1, “COMBINATION […] OF KRAS G12D INHIBITORS WITH Pan ErbB FAMILY INHIBITORS” (MIRATI THERAPEUTICS, INC., priority 2021, published 2024).

Legend:
ASPC1 = test: Composite Synergy Score, Cell-Titer Glo 72 hours, dose matrix with MRTX1133; type: cell-based; settings: combined with MRTX1133
Description: (§1) Assays for determining the synergy score for the pairwise combinations for each cell line were performed in triplicate. Three 96-well plates plus an additional 4 wells of a separate 96-well control plate for determining baseline luminescence were seeded with 2000 cells/well of a particular cell line in a total volume of 90 μl of a suitable growth medium for that cell line, e.g., RPMI 1640 medium supplemented with 10% FBS and any cell line specific reagents need for growth. The plates were incubated overnight at 37° C. in a 5% CO2 atmosphere.
(§2) To each of the designated baseline wells, 30 μl of Cell-Titer Glo reagent (CTG; Promega Corporation) was added to each well and the plates were incubated for 20 min with shaking at room temperature. Baseline luminescence was quantitated using a BMG ClarioStar multimode plate reader according to the manufacturer's instructions.
(§3) A series of working stock 1000× drug dilutions in 100% DMSO was prepared that includes an 8 point single agent dilution of MRTX 1133 and a 5-point single agent dilution of the pan ErbB family inhibitor. The dilutions used for MRTX1133 and the pan ErbB family inhibitor varied for each individual compound but were in the range of 3- to 6-fold/serial dilution.
(§4) A 10× intermediate dosing plate was prepared in serum free RPMI medium that contains arrayed single agent dilutions MRTX1133 or the pan ErbB family inhibitor. In addition, a matrix of 40 dilution combinations of MRTX1133 and the pan ErbB family inhibitor was prepared as test samples.
(§5) To each corresponding well of the three 96-well plates seeded with the appropriate cell line above, 10 μl of each 10× single agent and the 40 combinations of the dose matrix was added and the plates were incubated for 72 hours at 37 C in 5% CO2 atmosphere. A 30 μl aliquot of Cell-Titer Glo reagent (CTG) was added to each test well, the plates were incubated for 20 min with shaking at room temperature, and luminescence was quantitated using a BMG ClarioStar multimode plate reader according to the manufacturer's instructions.
(§6) The output of the data from each mathematical model is the assignment of a relative synergy score. The data reported in Table 1 are the aggregate sum of the Loewe additivity, Bliss independence, Highest Single Agent and ZIP scores (“Composite Synergy Score”).
(§7) The output of the data from each mathematical model is the assignment of a relative synergy score.

GP2D = test: as above; type: cell-based; settings: combined with MRTX1133
Description: as §1, §2, §3, §4, §5, §6, §7

HCC1588 = test: as above; type: cell-based; settings: combined with MRTX1133
Description: as §1, §2, §3, §4, §5, §6, §7

HPAC = test: as above; type: cell-based; settings: combined with MRTX1133
Description: as §1, §2, §3, §4, §5, §6, §7

HPAFII = test: as above; type: cell-based; settings: combined with MRTX1133
Description: as §1, §2, §3, §4, §5, §6, §7

Hec1B = test: as above; type: cell-based; settings: combined with MRTX1133
Description: as §1, §2, §3, §4, §5, §6, §7

LS180 = test: as above; type: cell-based; settings: combined with MRTX1133
Description: as §1, §2, §3, §4, §5, §6, §7

LS513 = test: as above; type: cell-based; settings: combined with MRTX1133
Description: as §1, §2, §3, §4, §5, §6, §7

Panc0403 = test: as above; type: cell-based; settings: combined with MRTX1133
Description: as §1, §2, §3, §4, §5, §6, §7

Panc0504 = test: as above; type: cell-based; settings: combined with MRTX1133
Description: as §1, §2, §3, §4, §5, §6, §7

Panc0813 = test: as above; type: cell-based; settings: combined with MRTX1133
Description: as §1, §2, §3, §4, §5, §6, §7

SNU1033 = test: as above; type: cell-based; settings: combined with MRTX1133
Description: as §1, §2, §3, §4, §5, §6, §7

SNU1197 = test: as above; type: cell-based; settings: combined with MRTX1133
Description: as §1, §2, §3, §4, §5, §6, §7

SNU410 = test: as above; type: cell-based; settings: combined with MRTX1133
Description: as §1, §2, §3, §4, §5, §6, §7

SNU61 = test: as above; type: cell-based; settings: combined with MRTX1133
Description: as §1, §2, §3, §4, §5, §6, §7

SNUC2B = test: as above; type: cell-based; settings: combined with MRTX1133
Description: as §1, §2, §3, §4, §5, §6, §7

SU8684 = test: as above; type: cell-based; settings: combined with MRTX1133
Description: as §1, §2, §3, §4, §5, §6, §7

SUIT2 = test: as above; type: cell-based; settings: combined with MRTX1133
Description: as §1, §2, §3, §4, §5, §6, §7

LS180 cells = test: LS180 colon cancer xenograft, tumor volumes; type: in vivo, nude/nude mice; settings: for tumor growth inhibition: 30 mg/kg BID, single agent, Day 15
Description: (§8) Immunocompromised nude/nude mice are inoculated in the right hind flank with cells harboring a KRas G12D mutation. When tumor volumes reach between 200-400 mm^3 in size, the mice are divided into four to five groups of 5 mice each. The first group is administered vehicle only. […] The fourth or last groups are administered the single agent dose of the KRas G12D inhibitor using the twice daily schedule and/or the 2 sequential days followed by 5 days off schedule in combination with the single agent dose of one of the EGFR inhibitors. […] Tumor volumes are measured using a caliper every two-three days and tumor volumes are calculated by the formula: […].
(§9) 20 to 30 nude/nude mice per study were inoculated in the right hind limb with 5×10^6 LS180 cells, AsPC-1 cells, GP2D cells, Panc 02.03 cells, SW1990 cells, or SNU-1033 cells.
Experimental Procedures. 25 nude/nude mice were inoculated with LS180 cells in the right hind flank. When the tumors reached ˜250 mm^3 five treatment groups were established with five mice per group.

SNU-1033 cells = test: SNU-1033 TGI 46 colorectal cancer xenograft, tumor volumes; type: in vivo, nude/nude mice; settings: for Average Tumor Volumes: 30 mg/kg BID 2x/week
Description: as §8, §9
Experimental Procedures. 20 nude/nude mice were inoculated with SNU-1033 cells in the right hind flank. When the tumors reached ˜300 mm^3 four treatment groups were established with five mice per group.

## CN(C)C/C=C/C(=O)Nc1cc2c(Nc3ccc(F)c(Cl)c3)ncnc2cc1OC1CCOC1 (centres unmarked) [Afatinib, (E)-N-(4-((3-chloro-4-fluorophenyl)amino)-7-((tetrahydrofuran-3-yl)oxy)quinazolin-6-yl)-4-(dimethylamino)but-2-enamide, reference compound]
ASPC1
  Composite Synergy Score: 28
GP2D
  Composite Synergy Score: 26
HCC1588
  Composite Synergy Score: 10
HPAC
  Composite Synergy Score: 33
HPAFII
  Composite Synergy Score: 23
Hec1B
  Composite Synergy Score: −5
LS180
  Composite Synergy Score: 76
LS513
  Composite Synergy Score: 69
Panc0403
  Composite Synergy Score: 40
Panc0504
  Composite Synergy Score: 24
Panc0813
  Composite Synergy Score: 20
SNU1033
  Composite Synergy Score: 30
SNU1197
  Composite Synergy Score: 63
SNU410
  Composite Synergy Score: −13
SNU61
  Composite Synergy Score: 44
SNUC2B
  Composite Synergy Score: 25
SU8684
  Composite Synergy Score: 42
SUIT2
  Composite Synergy Score: 45

## C#Cc1c(F)ccc2cc(O)cc(-c3ncc4c(N5C[C@H]6CC[C@@H](C5)N6)nc(OC[C@@]56CCCN5C[C@H](F)C6)nc4c3F)c12 [MRTX1133, 4-(4-((1R,5S)-3,8-diazabicyclo[3.2.1]octan-3-yl)-8-fluoro-2-(((2R,7aS)-2-fluorohexahydro-1H-pyrrolizin-7a-yl)methoxy)pyrido[4,3-d]pyrimidin-7-yl)-5-ethynyl-6-fluoronaphthalen-2-ol]
LS180 cells; 30 mg/kg BID 2x/week, Study Day 1
  Average Tumor Volumes: 272.338 mm^3
LS180 cells; 30 mg/kg BID 2x/week, Study Day 4
  Average Tumor Volumes: 570.528 mm^3
LS180 cells; 30 mg/kg BID 2x/week, Study Day 8
  Average Tumor Volumes: 1134.668 mm^3
LS180 cells; 30 mg/kg BID 2x/week, Study Day 11
  Average Tumor Volumes: 1439.99 mm^3
LS180 cells; 30 mg/kg BID 2x/week, Study Day 15
  Average Tumor Volumes: 1899.832 mm^3
LS180 cells; 30 mg/kg BID Daily, Study Day 1
  Average Tumor Volumes: 268.94 mm^3
LS180 cells; 30 mg/kg BID Daily, Study Day 4
  Average Tumor Volumes: 418.808 mm^3
LS180 cells; 30 mg/kg BID Daily, Study Day 8
  Average Tumor Volumes: 593.71 mm^3
LS180 cells; 30 mg/kg BID Daily, Study Day 11
  Average Tumor Volumes: 808.808 mm^3
LS180 cells; 30 mg/kg BID Daily, Study Day 15
  Average Tumor Volumes: 1197.106 mm^3
LS180 cells; daily administration
  tumor growth inhibition: 45%
LS180 cells; twice per week administration
  tumor growth inhibition: 4%
SNU-1033 cells; Study Day 1
  Average Tumor Volumes: 298.92 mm^3
SNU-1033 cells; Study Day 5
  Average Tumor Volumes: 336.336 mm^3
SNU-1033 cells; Study Day 8
  Average Tumor Volumes: 431.99 mm^3
SNU-1033 cells; Study Day 12
  Average Tumor Volumes: 468.892 mm^3
SNU-1033 cells; Study Day 15
  Average Tumor Volumes: 529.222 mm^3
SNU-1033 cells; Study Day 19
  Average Tumor Volumes: 643.516 mm^3
SNU-1033 cells; Study Day 22
  Average Tumor Volumes: 703.368 mm^3
SNU-1033 cells; Study Day 26
  Average Tumor Volumes: 802.69 mm^3
SNU-1033 cells; Study Day 29
  Average Tumor Volumes: 838.708 mm^3
SNU-1033 cells; Study Day 33
  Average Tumor Volumes: 895.918 mm^3
SNU-1033 cells; 30 mg/kg twice per week, single agent, Day 33
  tumor growth inhibition: 47%
